Bounds are passed on as bounds.

One experiment concerns the target RIP3 (Homo sapiens (Human), UniProt Q9Y572). The experiment in a line: KINOMEscan binding assay, RIP3. The settings on record: Table 35. As for the experimental part: Kinase assays. For most assays, kinase-tagged T7 phage strains were grown in parallel in 24-well blocks in an E. coli host derived from the BL21 strain. E. coli were grown to log-phase and infected with T7 phage from a frozen stock (multiplicity of infection=0.4) and incubated with shaking at 32° C. until lysis (90-150 minutes).
The Hill Slope was set to −1.

The target of a further experiment is RIP1 (Homo sapiens (Human), UniProt Q13546). Nature of the experiment: KINOMEscan binding assay, RIP1. The settings on record: Table 35.
Sequence of RIP1 (Q13546 whole entry): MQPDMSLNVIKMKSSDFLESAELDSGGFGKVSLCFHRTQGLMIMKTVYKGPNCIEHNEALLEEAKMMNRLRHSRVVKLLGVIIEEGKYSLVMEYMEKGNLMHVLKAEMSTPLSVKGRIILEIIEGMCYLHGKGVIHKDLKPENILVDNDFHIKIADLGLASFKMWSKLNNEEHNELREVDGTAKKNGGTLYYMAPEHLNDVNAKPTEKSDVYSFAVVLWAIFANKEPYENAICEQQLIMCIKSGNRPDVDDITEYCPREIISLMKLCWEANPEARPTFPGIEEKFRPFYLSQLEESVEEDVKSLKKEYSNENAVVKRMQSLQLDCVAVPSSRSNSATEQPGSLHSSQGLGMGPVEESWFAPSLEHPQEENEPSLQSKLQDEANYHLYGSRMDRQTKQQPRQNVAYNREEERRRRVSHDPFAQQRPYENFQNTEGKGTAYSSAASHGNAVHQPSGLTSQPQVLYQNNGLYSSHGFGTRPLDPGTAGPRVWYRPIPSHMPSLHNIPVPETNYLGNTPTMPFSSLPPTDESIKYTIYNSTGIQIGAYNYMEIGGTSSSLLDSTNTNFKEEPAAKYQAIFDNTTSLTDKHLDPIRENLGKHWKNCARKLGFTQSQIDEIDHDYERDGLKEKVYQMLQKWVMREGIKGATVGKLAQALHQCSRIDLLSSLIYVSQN

Sequence of RIP3 (Q9Y572 whole entry): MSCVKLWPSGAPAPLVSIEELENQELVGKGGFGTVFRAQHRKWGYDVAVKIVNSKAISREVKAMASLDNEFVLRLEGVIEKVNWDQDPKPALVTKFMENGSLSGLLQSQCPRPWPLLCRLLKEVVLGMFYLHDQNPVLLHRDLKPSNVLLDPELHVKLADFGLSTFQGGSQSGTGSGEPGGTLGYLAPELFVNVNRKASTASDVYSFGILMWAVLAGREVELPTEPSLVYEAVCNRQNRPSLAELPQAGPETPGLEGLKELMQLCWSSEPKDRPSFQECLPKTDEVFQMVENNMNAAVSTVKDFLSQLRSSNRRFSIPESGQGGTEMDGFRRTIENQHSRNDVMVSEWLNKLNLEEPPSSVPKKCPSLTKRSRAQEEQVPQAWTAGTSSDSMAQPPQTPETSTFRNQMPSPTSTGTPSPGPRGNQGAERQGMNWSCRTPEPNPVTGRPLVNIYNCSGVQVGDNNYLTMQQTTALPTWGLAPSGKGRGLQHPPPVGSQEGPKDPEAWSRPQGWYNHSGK

Turning to `CCCS(=O)(=O)Nc1ccc(-c2n[nH]c(Nc3cnccn3)c2C(N)=O)cc1` [Compound 97, 3-(4-(propylsulfonamido)phenyl)-5-(pyrazin-2-ylamino)-1H-pyrazole-4-carboxamide], the Kd at RIP3 and on RIP1 was above 30 µM in each case.

Turning to `CCS(=O)(=O)Nc1ccc(-c2n[nH]c(Nc3cc(C)ncc3F)c2C(N)=O)cc1` [Compound 111, 3-(4-(ethylsulfonamido)phenyl)-5-((5-fluoro-2-methylpyridin-4-yl)amino)-1H-pyrazole-4-carboxamide], the Kd on RIP3 and at RIP1 was above 30 µM in each case.

`COCCOc1cc(Nc2[nH]nc(-c3ccc(NS(=O)(=O)CCN(C)C)cc3)c2C(N)=O)ccn1` [Compound 116, 3-(4-((2-(dimethylamino)ethyl)sulfonamido)phenyl)-5-((2-(2-methoxyethoxy)pyridin-4-yl)amino)-1H-pyrazole-4-carboxamide]: the Kd at RIP3 and on RIP1 was above 30 µM throughout.

On to `CCS(=O)(=O)Nc1ccc(-c2n[nH]c(Nc3ccnc(C)n3)c2C(N)=O)cc1` [Compound 125, 3-(4-(ethylsulfonamido)phenyl)-5-((2-methylpyrimidin-4-yl)amino)-1H-pyrazole-4-carboxamide], for which the Kd on RIP3 and on RIP1 was above 30 µM throughout.

On to `Cc1ccc(CS(=O)(=O)Nc2ccc(-c3n[nH]c(Nc4ccccn4)c3C(N)=O)cc2)cc1` [Compound 132, 5-(pyridin-2-ylamino)-3-(4-((p-tolylmethyl)sulfonamido)phenyl)-1H-pyrazole-4-carboxamide], for which the Kd on RIP3 and at RIP1 was above 30 µM each time.

For the compound `CCS(=O)(=O)Nc1ccc(-c2n[nH]c(Nc3ccc4ccc(Cl)cc4n3)c2C(N)=O)cc1OCc1ccc(F)cc1` [Compound 138, 5-((7-chloroquinolin-2-yl)amino)-3-(4-(ethylsulfonamido)-3-((4-fluorobenzyl)oxy)phenyl)-1H-pyrazole-4-carboxamide], the Kd at RIP3 and on RIP1 was above 30 µM each time.

Regarding `CCS(=O)(=O)Nc1ccc(-c2n[nH]c(Nc3cccc(C(F)(F)F)n3)c2C(N)=O)c(OCc2ccc(F)cc2)c1` [Compound 141, 3-(4-(ethylsulfonamido)-2-((4-fluorobenzyl)oxy)phenyl)-5-((6-(trifluoromethyl)pyridine-2-yl)amino)-1H-pyrazole-4-carboxamide], the Kd on RIP3 and on RIP1 was above 30 µM each time.

Regarding `NC(=O)c1c(-c2ccc(NS(=O)(=O)CCC(F)(F)F)c(OCc3ccc(F)cc3)c2)n[nH]c1Nc1cccc(C(F)(F)F)n1` [Compound 182, 3-(3-((4-fluorobenzyl)oxy)-4-((3,3,3-trifluoropropyl)sulfonamido)phenyl)-5-((6-(trifluoromethyl)pyridine-2-yl)amino)-1H-pyrazole-4-carboxamide], the Kd on RIP3 and on RIP1 was above 30 µM throughout.

On to `CCS(=O)(=O)Nc1ccc(-c2n[nH]c(Nc3cnccn3)c2C(N)=O)cc1OCC1CCCN(C)C1` (stereo not shown) [Compound 187, 3-(4-(ethylsulfonamido)-3-((1-methylpiperidin-3-yl)methoxy)phenyl)-5-(pyrazin-2-ylamino)-1H-pyrazole-4-carboxamide], for which the Kd on RIP3 and at RIP1 was above 30 µM in each case.

Take `CCS(=O)(=O)Nc1ccc(-c2n[nH]c(Nc3cccnc3C(F)(F)F)c2C(N)=O)cc1OCc1ccc(F)cc1` [Compound 192, 3-(4-(ethylsulfonamido)-3-((4-fluorobenzyl)oxy)phenyl)-5-((2-(trifluoromethyl)pyridine-3-yl)amino)-1H-pyrazole-4-carboxamide]: the Kd on RIP3 and on RIP1 was above 30 µM each time.

As to `CCS(=O)(=O)Nc1ccc(-c2n[nH]c(Nc3cccc(C(F)(F)F)n3)c2C(N)=O)cc1OCC1CCCCC1` [Compound 200], the Kd at RIP3 and on RIP1 was above 30 µM in each case.

The values are drawn from US20250074891A1 (Anaxis Pharma Pty Ltd., priority 2021, published 2025).
